In PubChem BioAssay (NCI):
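Compound exposure: 48 hours, 5 concentrations, 96-well plates. GI50: concentration for 50% inhibition of growth. TGI: concentration producing complete growth inhibition.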

Assays:
Assay in all cases: inhibition of tumour cell growth, NCI panel, 48 h
[1] = tested on: SF-295 CNS
[2] = tested on: HCT-116 colon
[3] = tested on: RXF 393 renal
[4] = tested on: SN12C renal
[5] = tested on: HL-60(TB) leukemia
[6] = tested on: UACC-62 melanoma
[7] = tested on: SR leukemia
[8] = tested on: NCI-H460 lung
[9] = tested on: T-47D breast
[10] = tested on: SK-MEL-2 melanoma
[11] = tested on: UACC-257 melanoma
[12] = tested on: HCC-2998 colon
[13] = tested on: NCI/ADR-RES ovarian
[14] = tested on: CAKI-1 renal
[15] = tested on: MALME-3M melanoma
[16] = tested on: SK-MEL-28 melanoma
[17] = tested on: SW-620 colon
[18] = tested on: OVCAR-3 ovarian

SMILES	TGI [1] [µM]	TGI [2] [µM]	TGI [3] [µM]	TGI [4] [µM]	TGI [5] [µM]	TGI [6] [µM]	TGI [7] [µM]	TGI [8] [µM]	TGI [9] [µM]	TGI [10] [µM]	TGI [11] [µM]	TGI [12] [µM]	TGI [13] [µM]	TGI [14] [µM]	TGI [15] [µM]	TGI [16] [µM]	TGI [17] [µM]	TGI [18] [µM]	GI50 [2] [µM]	GI50 [4] [µM]
COc1cc2ncnc(Nc3cccc(Cl)c3)c2cc1OC	42.4	46.2	26.8	45.8	62.4	22	24.1	40.7	> 67.1	30	37.4	54.3	20.3	25.5	19.8	42.6	45	35.8	–	–
Cc1c(C)c(C)n(C2OC(CO)C(O)C(O)C2O)c(=S)c1C#N (stereo not drawn)	> 100	> 100	> 100	> 100	> 100	> 100	> 100	> 100	> 100	> 100	> 100	> 100	> 100	–	> 100	> 100	> 100	> 100	–	–
N#CC12CNCC1CN=N2 (stereo not drawn)	> 100	> 100	> 100	> 100	> 100	> 100	> 100	> 100	> 100	> 100	> 100	> 100	> 100	> 100	> 100	> 100	> 100	> 100	–	–
CCCCCCCCCCCCN(CC(O)C(O)C(OC1OC(CO)C(O)C(O)C1O)C(O)CO)C(=O)CCCCCCCCCCC (stereo not drawn)	37.3	36.4	67.5	45.4	> 100	38.8	57.8	39.7	62.3	58.8	36.6	32.6	49.7	33.3	36	31.9	33.6	49.2	–	–
COc1cc(/C=C2/SC(c3ccccc3)N(c3ccccc3Cl)C2=O)cc(OC)c1OC (stereo not drawn)	> 100	67.7	70.2	46.6	> 100	> 100	58.9	> 100	> 100	> 100	> 100	> 100	85.3	> 100	64.7	> 100	> 100	> 100	–	–
CC1(C)C2CCC(CN)(C2)C1N (stereo not drawn)	> 100	> 100	> 100	> 100	> 100	> 100	> 100	> 100	> 100	> 100	> 100	> 100	> 100	> 100	> 100	> 100	> 100	> 100	–	–
CCC/C=C/c1cc2c(cc1O)CC[C@@H]1[C@@H]2CC[C@]2(C)[C@@H](O)CC[C@@H]12	34.9	31.6	33.2	32.4	27.3	29	45.7	33	77.1	32.1	30.8	38.8	44.1	41.8	30.3	36.5	37.4	47	17.2	17.1
CCOC(=O)C1(Cc2ccccc2)C=CN(C(=O)c2ccccc2)C=C1	> 100	> 100	> 100	> 100	45.7	72.9	67.5	> 100	78.8	49.6	51.1	> 100	> 100	> 100	88.9	> 100	> 100	> 100	–	–
COc1ccc(C(=O)c2sc(N(C)C)nc2-c2ccccc2)cc1	–	> 100	> 100	> 100	40.9	> 100	> 100	52.9	> 100	76.5	86.1	48.5	49.8	–	> 100	> 100	> 100	48.6	–	–
O=C(O)c1ccccc1/C=N/NC1=NCCN1	> 100	> 100	> 100	–	> 100	> 100	> 100	> 100	> 100	> 100	> 100	> 100	> 100	–	> 100	> 100	> 100	> 100	–	–
Cc1cc2cc3c(cc2c(-c2ccc([N+](=O)[O-])cc2)n1)OCO3	> 100	> 100	> 100	> 100	> 100	67.2	> 100	> 100	> 100	> 100	> 100	> 100	> 100	> 100	> 100	> 100	> 100	> 100	–	–
Cc1cc(S(=O)(=O)Nc2nc(N)n(-c3ccccn3)n2)c(S)cc1Cl	–	> 100	> 100	> 100	> 100	> 100	> 100	> 100	> 100	> 100	> 100	> 100	> 100	> 100	> 100	> 100	> 100	> 100	–	–
O=C1c2[nH]c3ccc(Br)cc3c2CCN1Cc1ccc(Cl)cc1	26.2	23.5	36.4	39.9	99.1	28.2	44.5	–	29.2	47.4	30	28.3	40.6	34.4	33.7	31.6	34.8	28.5	–	–
O=c1[nH]nc(-c2ccccc2)n1/N=C/c1ccc([N+](=O)[O-])cc1	> 77.7	> 100	28.1	> 100	> 100	> 100	> 100	> 100	> 60.2	67.3	> 100	> 83.5	> 68.9	> 59.3	> 100	> 100	> 100	> 100	–	–
COC1(C)CP(=O)(OC(C)C)CC(C)=C1Cl (stereo not drawn)	51	21	55.2	45.8	29.1	25.6	> 100	66.3	55.6	45.9	72.1	49.1	> 100	36.8	40.8	61.3	32.4	24.2	–	–
c1ccc(-c2cn3c(nc4ccccc43)c(-c3ccccc3)n2)cc1	> 71.9	> 100	> 54.3	> 100	> 100	> 55.6	> 100	> 100	> 71.3	> 62.5	> 100	> 100	> 100	> 100	> 100	> 100	> 100	> 100	–	–
O=C1N=C(SC2OC(CO)C(O)C(O)C2O)S/C1=C\c1ccccc1 (stereo not drawn)	> 100	–	> 100	> 100	> 100	> 100	> 100	> 100	> 100	> 100	> 100	> 100	> 100	> 100	> 100	> 100	> 100	> 100	–	–
COc1nc(N=P(c2ccccc2)(c2ccccc2)c2ccccc2)cc(=O)[nH]1	> 100	> 100	> 100	> 100	> 100	> 100	> 100	> 100	> 100	> 100	> 100	> 100	> 100	> 100	> 100	> 100	> 100	> 100	–	–
CCOC(=O)c1cc2c([nH]1)c(O)cc1c2ccn1Cc1ccccc1	31.6	23.8	21.9	36.6	33.9	28.8	16.9	34.7	11.9	36.6	34.8	37	38.5	36.8	36.8	33.8	40.6	31.6	–	–
N#CC1C(=O)N(c2ccccc2)NC12OC(=O)c1ccncc12 (stereo not drawn)	> 20	> 20	> 20	> 20	> 20	> 20	> 20	> 20	> 20	> 20	> 20	> 20	> 20	> 20	> 20	> 20	> 20	> 20	–	–
Cc1cc2c(cc1C(=O)CCC(=O)O)CC1(C2)Cc2cc(C)c(C(=O)CCC(=O)O)cc2C1	> 100	> 100	> 100	> 100	> 100	–	> 100	> 100	> 100	> 100	> 100	> 100	> 100	> 100	> 100	> 100	> 100	> 100	–	–
O=C1N[C@H]2c3c(Cl)sc(Cl)c3[C@@H](O)[C@H]2O1	–	> 100	> 100	> 100	> 100	> 100	> 100	> 100	> 100	> 100	> 100	> 100	> 100	> 100	> 100	> 100	> 100	> 100	–	–
O=c1[nH]nc(-c2ccccc2)n1-c1ccncc1	> 100	> 100	> 100	> 100	> 100	–	> 100	> 100	> 100	–	> 100	> 100	> 100	> 100	> 100	> 100	> 100	> 100	–	–
O=C(O)COCC(=O)N(CCOCCN(Cc1ccccc1)C(=O)COCC(=O)O)Cc1ccccc1	> 100	> 100	> 100	> 100	> 100	> 100	> 100	> 100	> 100	> 100	> 100	> 100	> 100	> 100	> 100	> 100	> 100	> 100	–	–
COC(=O)C1=C(O)C(C(=O)OC)[C@]2(O)[C@H](C(=O)OC)[C@H]1C[C@@H](c1ccc(Cl)cc1)[C@H]2C(=O)OC (stereo partly drawn)	20.6	17.3	19.1	79.6	12.9	24.9	> 100	49.4	> 100	6.51	26.5	22	> 100	> 100	25.1	21.4	> 100	13.4	–	–
c1ccc(-c2nc3ccccc3n3c(CN4CCCCC4)nnc23)cc1	> 100	> 100	> 100	> 100	–	> 100	> 100	> 100	> 100	> 100	> 100	> 100	> 100	> 100	> 100	> 100	> 100	> 100	–	–
O=C1CN(C(=O)C2CCCN2C(=O)C2CCCN2)C(=O)CN1 (stereo not drawn)	> 100	> 100	> 100	> 100	> 100	> 100	> 100	> 100	> 100	–	–	> 100	> 100	> 100	> 100	> 100	> 100	> 100	–	–
